Values quoted from earlier work in EP4052553A1, “AGRICHEMICAL COMPOSITION FOR TREATING SEEDS AND USE THEREOF” (priority 2019, dated 2021).

details: distilled water at 20°C

Row | SMILES | aqueous solubility [ppm]
1 | CCC(CC)Nc1c([N+](=O)[O-])cc(C)c(C)c1[N+](=O)[O-] [Pendimethalin] | 0.26
2 | CS(=O)(=O)c1ccc(C(=O)C2=C(Sc3ccccc3)C3CCC(C3)C2=O)c(Cl)c1 (stereo not drawn) [benzobicyclon] | 0.052
3 | Cc1ccc(C(=O)COc2c(C(=O)c3ccc(Cl)c(C)c3Cl)c(C)nn2C)cc1 [benzofenap] | 0.12
4 | CCOC(=O)c1ccccc1S(=O)(=O)NC(=O)Nc1nc(Cl)cc(OC)n1 [chlorimuron-ethyl] | 8.6
5 | COc1cc(OC)nc(NC(=O)NS(=O)(=O)Nc2ccccc2C(=O)C2CC2)n1 [cyclosulfamuron] | 0.34
6 | COc1ccc(-n2c(=O)c(C(=O)C3C(=O)CCCC3=O)nc3c(Cl)cccc32)cc1 [fenquinotrione] | 17
7 | COC(=O)c1c(Cl)nn(C)c1S(=O)(=O)NC(=O)Nc1nc(OC)cc(OC)n1 [halosulfuron-methyl] | 10.2
8 | C[C@@H](Oc1ccc(Oc2nc3ccc(Cl)cc3o2)cc1)C(=O)N(C)c1ccccc1F [metamifop] | 0.69
9 | CC(C)=C1OC(=O)N(c2cc(OC3CCCC3)c(Cl)cc2F)C1=O [pentoxazone] | 0.22
10 | CCCOCCN(C(=O)CCl)c1c(CC)cccc1CC [pretilachlor] | 74
11 | CCCc1ccc2nc(Cl)c(S(=O)(=O)NC(=O)Nc3nc(OC)cc(OC)n3)n2n1 [propyrisulfuron] | 0.98
12 | C#CCN(C)c1c(C#N)cnn1-c1nn2c(c1Cl)CCCC2 [pyraclonil] | 50.1
13 | CCOC(=O)c1cnn(C)c1S(=O)(=O)NC(=O)Nc1nc(OC)cc(OC)n1 [pyrazosulfuron-ethyl] | 9.8
14 | COc1cc(OC)nc(Oc2cccc(Oc3nc(OC)cc(OC)n3)c2C(=O)ON=C(c2ccccc2)c2ccccc2)n1 [pyribenzoxim] | 3.5
15 | COc1cc(OC)nc(Sc2cccc3c2C(=O)OC3C)n1 (stereo not drawn) [pyriftalid] | 1.8
16 | CO/N=C(/C)c1cccc(Oc2nc(OC)cc(OC)n2)c1C(=O)OC [pyriminobac-methyl] | 9.3
17 | COCc1cccc(C(O)c2nc(OC)cc(OC)n2)c1NS(=O)(=O)C(F)F (stereo not drawn) [pyrimisulfan] | 87
18 | COc1nc(OC)nc(C(=O)c2cccc(F)c2N(C)S(=O)(=O)C(F)F)n1 [triafamone] | 41
